For 23 compounds, Ki results are on record in patent US8513232B2, “Substituted spirocyclic piperidine derivatives as histamine-3 (H3) receptor ligands” (Cephalon, Inc., priority 2008, dated 2013).

Experiment [1] addresses T1, rat histamine H3 receptor (Rattus norvegicus, UniProt Q9QYN8).
T1 construct: encoding the entire 445-amino-acid rat histamine H3 receptor; expressed in transfected cells; membrane preparation
The experiment in a line: Rat H3 radioligand binding ([3H]-N-alpha-methylhistamine, SPA). An excerpt: Cell line development and membrane preparation. The rat H3 receptor cDNA was PCR amplified from reverse-transcribed RNA pooled from rat thalamus, hypothalamus, striatum and prefrontal cortex with a sequence corresponding to by #338-1672 of Genbank file #NM_053506, encoding the entire 445-amino-acid rat histamine H3 receptor. This was engineered into the pIRES-neo3 mammalian expression vector, which was stably transfected into the CHO-A3 cell line (Euroscreen, Belgium), followed by clonal selection by limiting dilution. Cells were harvested and cell pellets were frozen (−80° C.). Cell pellets were resuspended in 5 mM Tris-HCl, pH 7.5 with […] and a cocktail of protease inhibitors (Complete Protease Inhibitior Tablets, Roche Diagnostics). Cells were disrupted using a polytron cell homogenizer and the suspension was centrifuged at 1000×g for 10 minutes at 4° C. The pellet was discarded and the supernatant centrifuged at 40,000×g for 30 min at 4° C. This membrane pellet was washed in membrane buffer containing 50 mM Tris-HCl, pH 7.5 with 0.6 mM EDTA, 5 mM MgCl2 and protease inhibitors, recentrifuged as above and the final pellet resuspended in membrane buffer plus 250 mM sucrose and frozen at −80° C.
(§1) Radioligand Binding. Membranes were resuspended in 50 mM Tris HCl (pH 7.4), 5 mM MgCl2, 0.1% BSA. The membrane suspensions (10 μg protein per well) were incubated in a 96 well microtiter plate with [^3H]-N-alpha-methylhistamine (approximately 1 nM final concentration), test compounds at various concentrations (0.01 nM-30 μM) and scintillation proximity beads (Perkin Elmer, FlashBlueGPCR Scintillating Beads) in a final volume of 80 μl for 4 hours at room temperature, protected from light. Non-specific binding was determined in the presence of 10 μM clobenpropit. Radioligand bound to receptor, and therefore in proximity to the scintillation beads, was measured using a MicroBeta scintillation counter.

The target of the next experiment is T2, human H3 receptor (Homo sapiens, UniProt Q9Y5N1).
T2 construct: expressed in transfected cells
The experiment can be described thus: Human H3 radioligand binding ([3H]-N-alpha-methylhistamine, SPA). Here is the method:
Methods: CHO cells stably expressing the human H3 receptor (GenBank: NM_007232) were harvested and cell pellets were frozen (−80° C.). Cell pellets were resuspended in 5 mM Tris-HCl, pH 7.5 with […] and a cocktail of protease inhibitors (Complete Protease Inhibitior Tablets, Roche Diagnostics). Cells were disrupted using a polytron cell homogenizer and the suspension was centrifuged at 1000×g for 10 minutes at 4° C. The pellet was discarded and the supernatant centrifuged at 40,000×g for 30 min at 4° C. This membrane pellet was washed in membrane buffer containing 50 mM Tris-HCl, pH 7.5 with 0.6 mM EDTA, 5 mM MgCl2 and protease inhibitors, recentrifuged as above and the final pellet resuspended in membrane buffer plus 250 mM sucrose and frozen at −80° C.
as §1

Setting [2] is: Table A, rat H3 binding, read-out: Rat Ki.
The mark [3] stands for this setting: Table A, human H3 binding, read-out: Human Ki.
The mark [4] stands for this setting: Rat H3 binding, Table B, Examples 136-362, read-out: rat H3 binding Ki.
The mark [5] stands for this setting: Human H3 binding, Table B, Examples 136-362, read-out: hum H3 binding Ki.

Like-named read-outs stand apart in the source and are kept apart here.

T1 sequence (Q9QYN8 whole entry): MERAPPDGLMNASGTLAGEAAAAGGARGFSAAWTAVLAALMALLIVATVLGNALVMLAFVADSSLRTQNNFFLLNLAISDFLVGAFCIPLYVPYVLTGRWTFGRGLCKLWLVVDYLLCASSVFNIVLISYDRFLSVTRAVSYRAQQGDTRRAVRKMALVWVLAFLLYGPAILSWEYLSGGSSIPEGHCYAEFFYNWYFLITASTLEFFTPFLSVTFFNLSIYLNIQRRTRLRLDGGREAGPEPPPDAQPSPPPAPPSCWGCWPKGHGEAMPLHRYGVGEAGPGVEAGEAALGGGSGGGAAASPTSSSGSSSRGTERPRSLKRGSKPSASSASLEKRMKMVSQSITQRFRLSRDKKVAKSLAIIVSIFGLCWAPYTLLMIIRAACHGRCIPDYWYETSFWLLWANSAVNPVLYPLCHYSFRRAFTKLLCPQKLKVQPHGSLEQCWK
T2 sequence (Q9Y5N1 whole entry): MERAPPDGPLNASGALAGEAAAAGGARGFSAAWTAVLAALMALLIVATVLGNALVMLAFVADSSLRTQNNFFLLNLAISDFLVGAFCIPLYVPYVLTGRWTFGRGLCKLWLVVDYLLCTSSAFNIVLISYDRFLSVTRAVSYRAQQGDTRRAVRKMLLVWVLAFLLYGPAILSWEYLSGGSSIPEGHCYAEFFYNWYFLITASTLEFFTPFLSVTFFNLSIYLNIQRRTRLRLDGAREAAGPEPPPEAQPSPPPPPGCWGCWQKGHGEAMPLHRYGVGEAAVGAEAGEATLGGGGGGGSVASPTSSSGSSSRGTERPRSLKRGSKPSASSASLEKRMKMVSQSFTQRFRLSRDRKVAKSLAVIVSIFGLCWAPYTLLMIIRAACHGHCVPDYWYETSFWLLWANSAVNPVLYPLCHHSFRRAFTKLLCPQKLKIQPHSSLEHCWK

Broadly, the Ki is a dissociation constant, usually derived from enzyme kinetics or from competition with a known ligand. Take `CN(C)c1ncc(-c2ccc3c(c2)CCC2(CCN(C4CCC4)CC2)O3)cn1` [Example 108]: the Ki (in experiment [1] (setting [2]); on human H3 receptor (setting [3])) was below 200 nM throughout.

Turning to `O=C(NC1CC1)c1ccc(-c2ccc3c(c2)CCC2(CCN(C4CCC4)CC2)O3)cc1` [Example 109], the Ki (in experiment [1] (setting [2]); at human H3 receptor (setting [3])) was below 200 nM throughout.

With `N#Cc1ccc(-c2ccc3c(c2)CCC2(CCN(C4CCC4)CC2)O3)cc1` [Example 110], the Ki (in experiment [1] (setting [2]); on human H3 receptor (setting [3])) was below 200 nM in each case.

Regarding `Cn1cc(-c2ccc3c(c2)CCC2(CCN(C4CCC4)CC2)O3)cn1` [Example 111], the Ki (in experiment [1] (setting [2]); at human H3 receptor (setting [3])) was below 200 nM throughout.

On to `c1cc2c(cc1-c1ccc3nonc3c1)CCC1(CCN(C3CCC3)CC1)O2` [Example 112], for which the Ki (in experiment [1] (setting [2]); at human H3 receptor (setting [3])) was below 200 nM each time.

Take `NC(=O)c1ccc(-c2ccc3c(c2)CCC2(CCN(C4CCC4)CC2)O3)cc1` [Example 113]: the Ki (in experiment [1] (setting [2]); on human H3 receptor (setting [3])) was below 200 nM throughout.

Regarding `c1cc2c(cc1-c1cn[nH]c1)CCC1(CCN(C3CCC3)CC1)O2` [Example 114], the Ki (in experiment [1] (setting [2]); on human H3 receptor (setting [3])) was below 200 nM throughout.

On to `CNC(=O)c1ccc(-c2ccc3c(c2)CCC2(CCN(C4CCC4)CC2)O3)cc1F` [Example 115], for which the Ki (in experiment [1] (setting [2]); on human H3 receptor (setting [3])) was below 200 nM each time.

Turning to `NS(=O)(=O)c1ccc(-c2ccc3c(c2)CCC2(CCN(C4CCC4)CC2)O3)cc1` [Example 116], the Ki (in experiment [1] (setting [2]); on human H3 receptor (setting [3])) was below 200 nM throughout.

As for `OCc1ccc(-c2ccc3c(c2)CCC2(CCN(C4CCC4)CC2)O3)cc1` [Example 117], the Ki (in experiment [1] (setting [2]); on human H3 receptor (setting [3])) was below 200 nM each time.

Consider `Fc1ncccc1-c1ccc2c(c1)CCC1(CCN(C3CCC3)CC1)O2` [Example 118], for which the Ki (in experiment [1] (setting [2]); on human H3 receptor (setting [3])) was below 200 nM throughout.

Turning to `c1ccc(Oc2ccc3c(c2)COC2(CCN(C4CCC4)CC2)O3)cc1` [Example 131], the results for the Ki (in experiment [1] (setting [2]); at human H3 receptor (setting [3])) were below 200 nM and 200 to 1000 nM, respectively.

As for `N#Cc1ccc(Oc2ccc3c(c2)COC2(CCN(C4CCC4)CC2)O3)cc1` [Example 132], the Ki (in experiment [1] (setting [2]); at human H3 receptor (setting [3])) was below 200 nM in each case.

Consider `c1cnc(-c2ccc3c(c2)CCC2(CCN(C4CCC4)CC2)O3)cn1` [Example 145], for which the Ki (in experiment [1] (setting [4]); on human H3 receptor (setting [5])) was below 200 nM in each case.

As to `CNC(=O)c1ccc(-c2ccc3c(c2)COC2(CCN(C4CCC4)CC2)O3)cc1C#N` [Example 179], the Ki (in experiment [1] (setting [4]); on human H3 receptor (setting [5])) was below 200 nM each time.

`O=C(Nc1ccc2c(c1)COC1(CCN(C3CCC3)CC1)O2)Nc1ccccc1Cl` [Example 185]: the Ki (in experiment [1] (setting [4]); at human H3 receptor (setting [5])) was below 200 nM throughout.

Turning to `O=C(c1ccc(-c2ccc3c(c2)CCC2(CCN(C4CCC4)CC2)O3)cn1)N1CC[C@H](O)C1` [Example 213], the Ki (in experiment [1] (setting [4]); on human H3 receptor (setting [5])) was below 200 nM each time.

Regarding `c1cc2c(cc1N1CCOCC1)COC1(CCN(C3CCC3)CC1)O2` [Example 214], the Ki (in experiment [1] (setting [4]); on human H3 receptor (setting [5])) was below 200 nM each time.

`COCCN(C)C(=O)c1ccc(-c2ccc3c(c2)CCC2(CCN(C4CCC4)CC2)O3)cc1F` [Example 294]: the Ki (in experiment [1] (setting [4]); on human H3 receptor (setting [5])) was below 200 nM throughout.

For `COCCN(C)C(=O)c1ccc(-c2ccc3c(c2)COC2(CCN(C4CCC4)CC2)O3)cc1F` [Example 300], the Ki (in experiment [1] (setting [4]); at human H3 receptor (setting [5])) was below 200 nM in each case.

Take `c1cnc(COc2ccc3c(c2)CCC2(CCN(C4CCC4)CC2)O3)nc1` [Example 317]: the Ki (in experiment [1] (setting [4]); on human H3 receptor (setting [5])) was below 200 nM in each case.

In the case of `O=C(O)c1c(F)cc(-c2ccc3c(c2)CCC2(CCN(C4CCC4)CC2)O3)cc1F` [Example 318], the Ki (in experiment [1] (setting [4]); at human H3 receptor (setting [5])) was below 200 nM each time.

Consider `Cc1cc(-c2ccc3c(c2)CCC2(CCN(C4CCC4)CC2)O3)ccc1C(=O)O` [Example 327], for which the Ki in experiment [1] (setting [4]) is 200 to 1000 nM; on human H3 receptor (setting [5]), below 200 nM.
